In US8980886B2, “Anthranilic acid derivatives” (Bayer Cropscience AG, priority 2010, dated 2015):
Like-named read-outs stand apart in the source and are kept apart here.

How the values were obtained:
[1] = logP by HPLC on reversed-phase columns (C 18), EEC Directive 79/831 Annex V.A8; type: physicochemical; details: reversed-phase C 18, acidic range pH 2.7; for chromatographic logP: reversed-phase HPLC column (C 18), pH 2.7, HPLC
Procedure: The logP values reported in the table above and in the Preparation Examples were determined in accordance with EEC Directive 79/831 Annex V.A8 by HPLC (High Performance Liquid Chromatography) on reversed-phase columns (C 18), with the following methods: The LC-MS determination in the acidic range is carried out at pH 2.7 using the mobile phases 0.1% aqueous formic acid and acetonitrile (contains 0.1% formic acid), linear gradient from 10% acetonitrile to 95% acetonitrile Calibration was carried out using unbranched alkan-2-ones (having from 3 to 16 carbon atoms) with known logP values (the logP values were determined by the retention times using linear interpolation between two successive alkanones).

Phaedon cochleariae = experiment: Phaedon test (PHAECO spray treatment); type: in vivo; details: 168 h, sprayed Chinese cabbage discs, after 7 days, read-out: activity in % (beetle larvae killed)
Procedure: (§1) Solvents: 78.0 parts by weight of acetone 1.5 parts by weight of dimethylformamide Emulsifier: 0.5 part by weight of alkylaryl polyglycol ether To produce a suitable preparation of active compound, 1 part by weight of active compound is mixed with the stated amount of solvents and emulsifier, and the concentrate is diluted with emulsifier-containing water to the desired concentration. Discs of Chinese cabbage (Brassica pekinensis) are sprayed with an active compound preparation of the desired concentration and, after drying, populated with larvae of the mustard beetle (Phaedon cochleariae). After 7 days, the activity in % is determined. 100% means that all beetle larvae have been killed; 0% means that none of the beetle larvae have been killed.

Spodoptera frugiperda = Spodoptera frugiperda test (SPODFR spray treatment); type: in vivo; details: foliar, 168 h, sprayed maize leaf discs, after 7 days, read-out: effect in % (caterpillars killed)
Procedure: as §1, with “maize leaves (Zea mays)” for “Chinese cabbage (Brassica pekinensis)”, “caterpillars” for “larvae”, “armyworm (Spodoptera frugiperda).” for “mustard beetle (Phaedon cochleariae).”, “effect” for “activity”, “determined” for “determined.”, “caterpillars” for “beetle larvae”

[2] = table of compounds, read-out: log P

Row | SMILES | chromatographic logP ([1]; Preparation Examples) | chromatographic logP [1, 2] | other results
1 | Cc1cc(Cl)cc2c(=O)oc(-c3cnc(Cn4nnc(C(F)(F)F)n4)nc3-c3ccccc3Cl)nc12 [6-chloro-2-[4-(2-chlorophenyl)-2-{[5-(trifluoromethyl)-2H-tetrazol-2-yl]methyl}pyrimidin-5-yl]-8-methyl-4H-3,1-benzoxazin-4-one] | 5.16 |  | 
2 | CNC(=O)c1cc(Br)cc(C)c1NC(=O)c1nc(Cn2nnc(C(F)(F)F)n2)sc1-c1ccccc1Cl [Compound 1] |  | 3.98 | 
3 | Cc1cc(Cl)cc(C(=O)NC(C)C)c1NC(=O)c1nc(Cn2nnc(C(F)(F)F)n2)sc1-c1ccccc1Cl [Compound 2] |  | 4.34 | 
4 | CNC(=O)c1cc(Cl)cc(C)c1NC(=O)c1cn(Cc2ccc(C(F)(F)F)nc2)nc1-c1ccccc1Cl [Compound 4] |  | 3.12 | 
5 | Cc1cc(Br)cc(C(=O)NC(C)C)c1NC(=O)c1nc(Cn2nnc(C(F)(F)F)n2)sc1-c1ccccc1Cl [Compound 5] |  | 4.48 | 
6 | CNC(=O)c1cc(C#N)cc(C)c1NC(=O)c1nc(Cn2nnc(C(F)(F)F)n2)oc1-c1ccccc1Cl [Compound 6] |  | 3.25 | 
7 | Cc1cc(C#N)cc(C(=O)NC(C)(C)C)c1NC(=O)c1nc(Cn2nnc(C(F)(F)F)n2)oc1-c1ccccc1Cl [Compound 7] |  | 3.95 | 
8 | CNC(=O)c1cc(Cl)cc(C)c1NC(=O)c1sc(Cn2nnc(C(F)(F)F)n2)nc1-c1ccccc1Cl [Compound 10] |  | 3.63 | pest or weed control at 100 g/ha (Phaedon cochleariae): 100%
9 | Cc1cc(Br)cc(C(=O)NC(C)C)c1NC(=O)c1sc(Cn2nnc(C(F)(F)F)n2)nc1-c1ccccc1Cl [Compound 11] |  | 4.28 | pest or weed control at 100 g/ha (Spodoptera frugiperda): 83%; pest or weed control at 100 g/ha (Phaedon cochleariae): 83%
10 | CNC(=O)c1cc(Br)cc(C)c1NC(=O)c1sc(Cn2nnc(C(F)(F)F)n2)nc1-c1ccccc1Cl [Compound 12] |  | 3.73 | pest or weed control at 100 g/ha (Phaedon cochleariae): 83%
11 | Cc1cc(Cl)cc(C(N)=O)c1NC(=O)c1sc(Cn2nnc(C(F)(F)F)n2)nc1-c1ccccc1Cl [Compound 13] |  | 3.34 | pest or weed control at 100 g/ha (Spodoptera frugiperda): 100%; pest or weed control at 100 g/ha (Phaedon cochleariae): 100%
12 | CNC(=O)c1cc(C#N)cc(C)c1NC(=O)c1sc(Cn2nnc(C(F)(F)F)n2)nc1-c1ccccc1Cl [Compound 14] |  | 3.19 | pest or weed control at 100 g/ha (Spodoptera frugiperda): 100%
13 | Cc1cc(C#N)cc(C(=O)NC(C)C)c1NC(=O)c1nc(Cn2nnc(C(F)(F)F)n2)oc1-c1ccccc1Cl [Compound 15] |  | 3.69 | 
14 | CNC(=O)c1cc(Cl)cc(C)c1NC(=O)c1nc(Cn2nnc(C(F)(F)F)n2)oc1-c1ccccc1Cl [Compound 16] |  | 3.65 | 
15 | Cc1cc(Cl)cc(C(=O)NC(C)(C)C)c1NC(=O)c1nc(Cn2nnc(C(F)(F)F)n2)oc1-c1ccccc1Cl [Compound 18] |  | 4.46 | 
16 | Cc1cc(Cl)cc(C(=O)NC(C)C)c1NC(=O)c1nc(Cn2nnc(C(F)(F)F)n2)oc1-c1ccccc1Cl [Compound 19] |  | 4.11 | 
17 | Cc1cc(Cl)cc(C(N)=O)c1NC(=O)c1nc(Cn2nnc(C(F)(F)F)n2)oc1-c1ccccc1Cl [Compound 20] |  | 3.45 | 
18 | CNC(=O)c1cc(Br)cc(C)c1NC(=O)c1nc(Cn2nnc(C(F)(F)F)n2)oc1-c1ccccc1Cl [Compound 21] |  | 3.72 | 

Row | SMILES | chromatographic logP ([1]; Preparation Examples) | chromatographic logP [1, 2] | other results
19 | Cc1cc(Br)cc(C(=O)NC(C)(C)C)c1NC(=O)c1nc(Cn2nnc(C(F)(F)F)n2)oc1-c1ccccc1Cl [Compound 22] |  | 4.52 | 
20 | Cc1cc(Br)cc(C(=O)NC(C)C)c1NC(=O)c1nc(Cn2nnc(C(F)(F)F)n2)oc1-c1ccccc1Cl [Compound 23] |  | 4.21 | 
21 | CNC(=O)c1cc(C#N)cc(C)c1NC(=O)c1nc(Cn2nnc(C(F)(F)F)n2)sc1-c1ccccc1Cl [Compound 24] |  | 3.46 | 
22 | Cc1cc(C#N)cc(C(=O)NC(C)(C)C)c1NC(=O)c1nc(Cn2nnc(C(F)(F)F)n2)sc1-c1ccccc1Cl [Compound 28] |  | 4.29 | 
23 | Cc1cc(Br)cc(C(=O)NC(C)(C)C)c1NC(=O)c1nc(Cn2nnc(C(F)(F)F)n2)sc1-c1ccccc1Cl [Compound 29] |  | 4.83 | 
24 | CNC(=O)c1cc(C#N)cc(C)c1NC(=O)c1cn(Cc2ccc(C(F)(F)F)nc2)nc1-c1ccccc1Cl [Compound 31] |  | 2.78 | pest or weed control at 100 g/ha (Spodoptera frugiperda): 100%; log P ([1]; HPLC, table of compounds): 2.83
25 | CNC(=O)c1cc(C#N)cc(C)c1NC(=O)c1cc(C(=O)Cn2nnc(C(F)(F)F)n2)cn1-c1ncccc1Cl [Compound 33] |  | 2.75 | 
26 | O=C(O)c1cnc(Cn2nnc(C(F)(F)F)n2)nc1-c1ccccc1Cl [Example No. (IV-1), 4-(2-chlorophenyl)-2-[5-(trifluoromethyl)-2H-tetrazol-2-yl]methylpyrimidine-5-carboxylic acid] | 2.5 |  | 
27 | CCOC(=O)c1cnc(CBr)nc1-c1ccccc1Cl [Example No. (IX), ethyl 2-(bromomethyl)-4-(2-chlorophenyl)pyrimidine-5-carboxylate] | 3.32 |  | 
28 | CCOC(=O)c1cnc(Cn2nnc(C(F)(F)F)n2)nc1-c1ccccc1Cl [Example No. (X), ethyl 4-(2-chlorophenyl)-2-[5-(trifluoromethyl)-2H-tetrazol-2-yl]methylpyrimidine-5-carboxylate] | 3.56 |  | 
29 | O=C(Cn1nnc(C(F)(F)F)n1)c1cc(C(=O)O)n(-c2ncccc2Cl)c1 [Example No. IV-3, 1-(3-chloropyridin-2-yl)-4-{[5-(trifluoromethyl)-2H-tetrazol-2-yl]acetyl}-1H-pyrrole-2-carboxylic acid] | 2.24 |  | 
30 | O=C(O)c1sc(Cn2nnc(C(F)(F)F)n2)nc1-c1ccccc1Cl [Example No. X (IV-2), 4-(2-chlorophenyl)-2-{[5-(trifluoromethyl)-2H-tetrazol-2-yl]methyl}-1,3-thiazole-5-carboxylic acid] | 2.63 |  | 
31 | COC(=O)c1sc(CBr)nc1-c1ccccc1Cl [Example No. XII, methyl 2-(bromomethyl)-4-(2-chlorophenyl)-1,3-thiazole-5-carboxylate] | 4.12 |  | 
32 | COC(=O)c1sc(Cn2nnc(C(F)(F)F)n2)nc1-c1ccccc1Cl [Example No. XIII, methyl 4-(2-chlorophenyl)-2-{[5-(trifluoromethyl)-2H-tetrazol-2-yl]methyl}-1,3-thiazole-5-carboxylate] | 3.6 |  | 
33 | COC(=O)c1cc(C(C)=O)cn1-c1ncccc1Cl [Example No. XV, methyl 4-acetyl-1-(3-chloropyridin-2-yl)-1H-pyrrole-2-carboxylate] | 1.74 |  | 
34 | COC(=O)c1cc(C(=O)CBr)cn1-c1ncccc1Cl [Example No. XVI, methyl 4-(bromoacetyl)-1-(3-chloropyridin-2-yl)-1H-pyrrole-2-carboxylate] | 2.28 |  | 
35 | COC(=O)c1cc(C(=O)Cn2nnc(C(F)(F)F)n2)cn1-c1ncccc1Cl [Example No. XVII, methyl 1-(3-chloropyridin-2-yl)-4-{[5-(trifluoromethyl)-2H-tetrazol-2-yl]acetyl}-1H-pyrrole-2-carboxylate] | 2.97 |  | 
36 | CNC(=O)c1cc(Cl)cc(C)c1NC(=O)c1cnc(Cn2nnc(C(F)(F)F)n2)nc1-c1ccccc1Cl [N-[4-chloro-2-methyl-6-(methylcarbamoyl)phenyl]-4-(2-chlorophenyl)-2-{[5-(trifluoromethyl)-2H-tetrazol-2-yl]methyl}pyrimidine-5-carboxamide] | 3.13 |  | 
